Test results reported in PubChem BioAssay AID248 (DTP/NCI, 2004).
Toxic doses and inconclusive results are not listed. Rule as the data show it: active = T/C of 150% or more; inactive = T/C below 125%.

Tested on: L1210 leukemia ip in BDF1 mice, survival T/C
Assay: NCI In Vivo Anticancer Drug Screen. Data for tumor model L1210 Leukemia (intraperitoneal) in B6D2F1 (BDF1) mice
Conditions: endpoint: mean survival time, higher = longer survival
In short: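 Mice bearing the transplanted tumor received compound or vehicle. Survival of the treated group was divided by that of the vehicle-treated control group to give the ratio.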

[1] = dose: 12.5 mg/kg/injection, schedule: Q04DX003 (ip), vehicle: Klucel (hydroxypropylcellulose) (HPC)
[2] = dose: 25.0 mg/kg/injection, schedule: Q04DX003 (ip), vehicle: Klucel (hydroxypropylcellulose) (HPC)
[3] = dose: 50.0 mg/kg/injection, schedule: Q04DX003 (ip), vehicle: Klucel (hydroxypropylcellulose) (HPC)
[4] = dose: 100.0 mg/kg/injection, schedule: Q04DX003 (ip), vehicle: Klucel (hydroxypropylcellulose) (HPC)

Measured: T/C

CN(NC(=O)OCc1ccccc1)C(=O)OCc1ccccc1
inactive: dose: 12.5 mg/kg/injection, schedule: Q01DX009 (ip), vehicle: Klucel (hydroxypropylcellulose) (HPC) 98 % of control | [1] 93 % of control | dose: 25.0 mg/kg/injection, schedule: Q01DX009 (ip), vehicle: Klucel (hydroxypropylcellulose) (HPC) 93 % of control | [2] 103 % of control | dose: 50.0 mg/kg/injection, schedule: Q01DX009 (ip), vehicle: Klucel (hydroxypropylcellulose) (HPC) 108 % of control | [3] 112 % of control | dose: 100.0 mg/kg/injection, schedule: Q01DX009 (ip), vehicle: Klucel (hydroxypropylcellulose) (HPC) 90 % of control | [4] 89 % of control | dose: 200.0 mg/kg/injection, schedule: Q01DX009 (ip), vehicle: Klucel (hydroxypropylcellulose) (HPC) 90 % of control | dose: 200.0 mg/kg/injection, schedule: Q04DX003 (ip), vehicle: Klucel (hydroxypropylcellulose) (HPC) 106 % of control | dose: 400.0 mg/kg/injection, schedule: Q04DX003 (ip), vehicle: Klucel (hydroxypropylcellulose) (HPC) 110 % of control

CCCCN=C(NCCCC)OC1CCCCC1
inactive: dose: 11.1 mg/kg/injection, schedule: Q01DX Z (ip), vehicle: saline 98 % of control | dose: 16.6 mg/kg/injection, schedule: Q01DX Z (ip), vehicle: saline 100 % of control | dose: 25.0 mg/kg/injection, schedule: Q01DX Z (ip), vehicle: saline 102 % of control

CC(C)CC(Br)C(=O)NC(CC(C)C)C(=O)O (stereo not drawn)
inactive: dose: 100.0 mg/kg/injection, schedule: Q01DX009 (ip), vehicle: saline with Tween-80 96 % of control | dose: 200.0 mg/kg/injection, schedule: Q01DX009 (ip), vehicle: saline with Tween-80 88 % of control | dose: 400.0 mg/kg/injection, schedule: Q01DX009 (ip), vehicle: saline with Tween-80 92 % of control

c1ccc(CCN2CCOCC2)nc1
inactive: dose: 100.0 mg/kg/injection, schedule: Q04DX003 (ip), vehicle: saline 109 % of control | dose: 200.0 mg/kg/injection, schedule: Q04DX003 (ip), vehicle: saline 96 % of control

O=C(/C=C\c1ccc(/C=C/C(=O)Nc2cccc(C3=NCCN3)c2)cc1)Nc1cccc(C2=NCCN2)c1
active: dose: 30.0 mg/kg/injection, schedule: Q01DX Z (ip), vehicle: saline 184 % of control | dose: 60.0 mg/kg/injection, schedule: Q01DX Z (ip), vehicle: saline 189 % of control | dose: 120.0 mg/kg/injection, schedule: Q01DX Z (ip), vehicle: saline 182 % of control | dose: 240.0 mg/kg/injection, schedule: Q01DX Z (ip), vehicle: saline 167 % of control
inactive: dose: 3.75 mg/kg/injection, schedule: Q01DX Z (ip), vehicle: saline 107 % of control | dose: 7.5 mg/kg/injection, schedule: Q01DX Z (ip), vehicle: saline 120 % of control | dose: 15.0 mg/kg/injection, schedule: Q01DX Z (ip), vehicle: saline 122 % of control

Cc1cc(NS(=O)(=O)c2ccc(N=Nc3c(N)n(C)c(=O)n(C)c3=O)cc2)nc(C)n1
inactive: dose: 100.0 mg/kg/injection, schedule: Q01DX001 (ip), vehicle: carboxymethylcellulose (CMC) 89 % of control | dose: 200.0 mg/kg/injection, schedule: Q01DX001 (ip), vehicle: carboxymethylcellulose (CMC) 104 % of control | dose: 400.0 mg/kg/injection, schedule: Q01DX001 (ip), vehicle: carboxymethylcellulose (CMC) 101 % of control

CC1=C(N)NN(O)C=C1
inactive: dose: 100.0 mg/kg/injection, schedule: Q04DX002 (ip), vehicle: saline 104 % of control | dose: 200.0 mg/kg/injection, schedule: Q04DX002 (ip), vehicle: saline 116 % of control | dose: 400.0 mg/kg/injection, schedule: Q04DX002 (ip), vehicle: saline 101 % of control

CC(=O)NN=C1CCC(=NNC(C)=O)CC1
inactive: [1] 97 % of control | [2] 94 % of control | [3] 108 % of control | [4] 110 % of control

COC(=O)c1ccccc1-n1cnc2ccccc2c1=O
inactive: dose: 100.0 mg/kg/injection, schedule: Q04DX002 (ip), vehicle: Klucel (hydroxypropylcellulose) (HPC) 101 % of control | dose: 200.0 mg/kg/injection, schedule: Q04DX002 (ip), vehicle: Klucel (hydroxypropylcellulose) (HPC) 101 % of control | dose: 400.0 mg/kg/injection, schedule: Q04DX002 (ip), vehicle: Klucel (hydroxypropylcellulose) (HPC) 93 % of control

CC(C)([NH-])CO.CC(C)([NH-])CO.[Cl][Cd][Cl]
inactive: dose: 3.13 mg/kg/injection, schedule: Q01DX009 (ip), vehicle: saline sonified 98 % of control | dose: 5.0 mg/kg/injection, schedule: Q01DX009 (ip), vehicle: saline 96 % of control | dose: 6.25 mg/kg/injection, schedule: Q01DX009 (ip), vehicle: saline sonified 96 % of control | dose: 6.25 mg/kg/injection, schedule: Q04DX003 (ip), vehicle: saline sonified 95 % of control | dose: 10.0 mg/kg/injection, schedule: Q01DX009 (ip), vehicle: saline 100 % of control | dose: 10.0 mg/kg/injection, schedule: Q04DX003 (ip), vehicle: alcohol 93 % of control | dose: 12.5 mg/kg/injection, schedule: Q01DX009 (ip), vehicle: saline sonified 98 % of control | dose: 12.5 mg/kg/injection, schedule: Q04DX003 (ip), vehicle: saline sonified 92 % of control | dose: 20.0 mg/kg/injection, schedule: Q04DX003 (ip), vehicle: alcohol 89 % of control
